Source: US20120010075A1 (priority 2009, published 2012)
Like-named read-outs stand apart in the source and are kept apart here.

Experiments:
[1] = tested on: Leptosphaeria nodorum (LEPTNO); assay: In vitro fungitoxicity of hydrazones with and without copper towards Leptosphaeria nodorum (Example 26); assay type: cell-based; conditions: for inhibition of growth at 0.05 µg/mL: Parastagonospora nodorum, 72 h, read-out: LEPTNO % Inhn. Minus Copper Observed
Phytophthora infestans = assay type: in vivo, Phytophthora infestans on tomato; conditions: applied 24 h before inoculation, assessed 7 days after inoculation
[2] = compound 0.05 μg/mL, copper-minus medium, 72 h at 25° C.
[3] = compound 0.05 μg/mL, copper-plus medium (CuCl2.2H2O), 72 h at 25° C.
[4] = hydrazone 50 ppm + 50 μM CuCl2.2H2O, tomato
[5] = copper-minus medium, test compound Concn. 0.05 μg/mL, 72 h at 25° C.
[6] = copper-plus medium (CuCl2 10 μM), test compound Concn. 0.05 μg/mL, 72 h at 25° C.
[7] = hydrazone 50 ppm with 50 μM CuCl2.2H2O, tomato late blight

SMILES | inhibition of growth at 0.05 µg/mL [1, 2] | LEPTNO % Inhn. Plus Copper Observed [1, 3] | TLB % Control (Phytophthora infestans; [4]) | LEPTNO % Inhn. Minus Copper Observed [1, 2] | inhibition of growth at 0.05 µg/mL [1, 5] | LEPTNO % Inhn. Plus Copper Observed [1, 6] | TLB % Control (Phytophthora infestans; [7]) | inhibition of growth at 0.05 µg/mL [1]
Cc1ccc(C(=O)N/N=C/c2cc([N+](=O)[O-])cc(Br)c2O)cc1 [Example 202] | 2% | 96.6% | 49.1% | – | – | – | – | –
C/C(=N\NC(=O)c1ccccc1N)c1ccccc1O [Example 51] | 0% | 97.6% | 4.8% | – | – | – | – | –
O=C(N/N=C/c1cc(Cl)cc([N+](=O)[O-])c1O)c1ccccc1 [Example 150] | 10% | 97.5% | 87.5% | – | – | – | – | –
COc1ccccc1C(=O)N/N=C/c1cc(Cl)cc(Cl)c1O [Example 94] | 0% | 92.9% | 37.0% | – | – | – | – | –
C/C(=N\NC(=O)c1cccc(I)c1)c1ccccc1O [Example 26] | – | 98.4% | 12.3% | 2.1% | – | – | – | –
COc1ccc(C(=O)N/N=C/c2cc(Cl)cc(Cl)c2O)cc1 [Example 75] | 0% | 98.4% | 15.8% | – | – | – | – | –
O=C(N/N=C/c1ccccc1O)c1cccc(Cl)c1 [Example 175] | 4.9% | 97.9% | 80.0% | – | – | – | – | –
C/C(=N\NC(=O)c1ccc(F)cc1)c1ccccc1O [Example 62] | 0% | 96.3% | 56.1% | – | – | – | – | –
Cc1cccc(C(=O)N/N=C/c2cc(Cl)cc(Cl)c2O)c1 [Example 95] | 14.1% | 94.0% | 81.2% | – | – | – | – | –
O=C(N/N=C/c1cc(Br)cc(Br)c1O)c1ccc(Cl)cc1 [Example 120] | 19.9% | 98.2% | 92.6% | – | – | – | – | –
O=C(N/N=C/c1cc(Br)ccc1O)c1ccc2c(c1)OCO2 [Example 7] | 2.6% | 97.2% | 54.6% | – | – | – | – | –
C/C(=N\NC(=O)c1ccc(Cl)cc1)c1ccccc1O [Example 54] | 0% | 95.7% | 17.0% | – | – | – | – | –
O=C(N/N=C/c1cc(Br)cc(Br)c1O)c1ccc(OC(F)(F)F)cc1 [Example 109] | 27.8% | 98.3% | 89.1% | – | – | – | – | –
O=C(N/N=C/c1cc(Br)ccc1O)c1ccc(Cl)cc1 [Example 171] | 4% | 98.3% | 15.8% | – | – | – | – | –
COc1ccc(/C=N/NC(=O)c2ccc(Cl)cc2)c(O)c1 [Example 200] | 0% | 95.0% | 78.9% | – | – | – | – | –
Cc1ccccc1C(=O)N/N=C/c1cc(Br)ccc1O [Example 158] | 6.2% | 96.9% | 84.7% | – | – | – | – | –
O=C(N/N=C/c1cc(Br)ccc1O)c1ccccc1Oc1ccccc1 [Example 19] | 2.9% | 88.8% | 25.0% | – | – | – | – | –
CC(C)/C(=N\NC(=O)c1ccccc1)c1cc(Cl)cc(Cl)c1O [Example 588] | – | – | – | – | 7.6% | 96.3% | 5.6% | –
O=C(N/N=C/c1cc(Cl)cc(Br)c1O)c1cccc(Br)c1 [Example 163] | 5.9% | 98.0% | 87.7% | – | – | – | – | –
C/C(=N\NC(=O)c1ccccc1)c1cc(Cl)ccc1O [Example 504] | – | – | – | – | 1.3% | 97.6% | 94.0% | –

SMILES | inhibition of growth at 0.05 µg/mL [1, 2] | LEPTNO % Inhn. Plus Copper Observed [1, 3] | TLB % Control (Phytophthora infestans; [4]) | LEPTNO % Inhn. Minus Copper Observed [1, 2] | inhibition of growth at 0.05 µg/mL [1, 5] | LEPTNO % Inhn. Plus Copper Observed [1, 6] | TLB % Control (Phytophthora infestans; [7]) | inhibition of growth at 0.05 µg/mL [1]
C/C(=N\NC(=O)c1cccc(F)c1)c1ccccc1O [Example 25] | 0% | 97.3% | 35.1% | – | – | – | – | –
COc1ccc(C(=O)N/N=C(\C)c2ccccc2O)cc1 [Example 214] | 7% | 98.0% | 60.0% | – | – | – | – | –
Cc1cccc(C(=O)N/N=C/c2ccccc2O)c1 [Example 174] | 0% | 97.0% | 72.7% | – | – | – | – | –
O=C(N/N=C/c1cc(Br)ccc1O)c1ccccc1Cl [Example 170] | 0% | 94.5% | 65.5% | – | – | – | – | –
Cc1ccc(C(=O)N/N=C/c2cc(Cl)cc(Cl)c2O)cc1 [Example 72] | 14.1% | 91.3% | 81.3% | – | – | – | – | –
C/C(=N\NC(=O)c1ccc(Cl)cc1Cl)c1ccccc1O [Example 216] | 6.3% | 98.4% | 57.9% | – | – | – | – | –
O=C(N/N=C/c1c(O)ccc2ccccc12)c1ccccc1 [Example 4] | 4.4% | 94.5% | 67.8% | – | – | – | – | –
O=C(N/N=C/c1cc(Br)cc(Br)c1O)c1ccccc1Cl [Example 112] | 8.1% | 97.8% | 78.2% | – | – | – | – | –
Cc1ccc(C(=O)N/N=C/c2cc(Br)ccc2O)cc1 [Example 179] | 18.7% | 98.0% | 35.1% | – | – | – | – | –
O=C(N/N=C/c1cc(Br)ccc1O)c1cccc(Cl)c1 [Example 176] | 8.8% | 98.2% | 61.4% | – | – | – | – | –
O=C(N/N=C/c1ccccc1O)c1ccc(Br)cc1 [Example 173] | 8.3% | 97.7% | 12.2% | – | – | – | – | –
O=C(N/N=C/c1cc([N+](=O)[O-])ccc1O)c1ccc(Cl)cc1 [Example 197] | 0% | 97.1% | 43.7% | – | – | – | – | –
C/C(=N\NC(=O)c1cccc([N+](=O)[O-])c1)c1ccccc1O [Example 37] | 3.3% | 97.0% | 33.0% | – | – | – | – | –
O=C(N/N=C/c1cc(Cl)ccc1O)c1ccc(C(F)(F)F)cc1 [Example 187] | – | 97.5% | 92.7% | – | – | – | – | 20.7%
CC(C)(C)c1ccc(C(=O)N/N=C/c2cc(Cl)cc(Cl)c2O)cc1 [Example 87] | 8.1% | 98.6% | 69.5% | – | – | – | – | –
C/C(=N\NC(=O)c1ccccc1Cl)c1ccccc1O [Example 212] | 0% | 95.2% | 14.0% | – | – | – | – | –
O=C(N/N=C/c1cc(Cl)ccc1O)c1ccccc1Br [Example 190] | 5.6% | 95.7% | 70.9% | – | – | – | – | –
O=C(N/N=C/c1cc(Br)cc(Br)c1O)c1ccccc1F [Example 116] | 8.4% | 98.2% | 88.8% | – | – | – | – | –
O=C(N/N=C/c1cc(I)cc(I)c1O)c1ccc(Cl)cc1 [Example 198] | 11.8% | 97.7% | 75.4% | – | – | – | – | –
